Measured values: paper PMC9043391, “Isolation and biological activities of compounds from Rumex vesicarius L. and their use as a component of a synbiotic preparation” (Food Chemistry: X, 2022)
Marks after values point to notes of the source that are not given here. Square brackets hold non-standard residues; d marks the D form. Peptide text beside a SMILES is read from it. * marks the point of attachment. Sta = CC(C)C[C@H](N)[C@@H](O)CC(=O)O; Isovaleryl = CC(C)CC(=O)*

Experiments:
[1] = system: Escherichia coli Nissle 1917 (EcN); assay: Growth kinetic curves of Escherichia coli Nissle 1917 (OD600, DMFit); assay type: cell-based; conditions: for Effect on lag phase of EcN compared with control: 2 mg/mL, in words
Protocol: (§1) Escherichia coli K12 (K12) was chosen as a representative enteric species, and E. coli Nissle 1917 (EcN) was chosen as a representative probiotic strain. Both strains were obtained from the bacterial strain collection in Food Microbiology Laboratory (Dairy department, Faculty of Agriculture, Mansoura University, Egypt). An overnight culture of both strains was activated in nutrient broth (NB) (BD Difco™, Bacton, Dickinson and Company Sparks, MD, USA) at 37 °C for 16–18 h. The culture was diluted on test days in buffered peptone water to a final concentration of 1.5 × 10^8 colony forming units (CFU)/mL cell counts were assessed by pour plate method, one mL of a suitable dilution was incubated on nutrient agar at 37 °C for 24 h. colonies were then counted and converted to CFU/mL ([Dawood et al., 2021]).
An aliquot (100 µL) of EcN was inoculated into NB (BD Difco ^TM) and incubated at 37 °C for 24 h. An overnight culture of EcN was further streaked onto nutrient agar and incubated for 48 h at 37 °C. The EcN culture was diluted in sterile saline solution (0.85%) on the day of assay to adjust the final cell count to 1.5 × 10^8 CFU/mL. Bacterial growth was determined in NB supplemented with individual pure compounds (1–8) or extracts (methanol, petroleum ether, and ethyl acetate) at 2 mg/mL. Growth kinetics of EcN were monitored spectrophotometrically by OD600 every of 60 min at 37 °C ([Pacheco-Ordaz et al., 2018]). DMFit ver. 2.1 an Excel add-in was used to determine: doubling time (Td), lag time, maximum growth at the stationary phase (Y max, OD), and specific growth rate (µmax, OD).

[2] = system: α-amylase; assay: α-amylase inhibition (starch, dinitrosalicylic acid, 540 nm); assay type: biochemical; conditions: samples at 2 mg/mL; acarbose 5 µg/mL positive control; in words
Protocol: α-amylase inhibition was determined as previously reported ([Hu et al., 2013]). Briefly, 200 µL of 20 mM sodium phosphate buffer (pH 7.0 with 6 mM NaCl), including α-amylase (10 U/mL) and 200 µL of sample (2 mg/mL), was incubated at 37 °C for 45 min. A potato starch solution (400 µL; 0.5%) was added to each sample and incubated at 37 °C in a shaking water bath (100 rpm) for 10 min. The enzymatic reaction was stopped with dinitrosalicylic acid color reagent. Screw cape tubes were transferred to a water bath at 100 °C for 10 min, then cooled to room temperature. Finally, samples were diluted with 3 mL of deionized water (3 mL). Absorbance of diluted reaction mixtures was measured spectrophotometrically at 540 nm (Spectro UV–VIS Auto, UV2602, Labomed, USA). Test and control samples were compared and expressed as percentage inhibition of α-amylase. Acarbose (5 µg/mL) was used as a positive control, and samples in buffer without test compounds or extracts were included as negative controls.

[3] = target: angiotensin-converting enzyme (ACE) (Homo sapiens, UniProt P12821); assay: Angiotensin-converting enzyme inhibitory activity (HHL cleavage, 228 nm); assay type: biochemical; conditions: whey of yogurt enriched at 2 mg/mL, after 7 days of refrigerated storage; in words
Protocol: Lyophilized aqueous extract (whey) obtained from yogurt enriched with extracts or individual compounds at 2 mg/mL was used. […] The method depends on hipuryl-histdylleucine (HHL) cleavage to hippuric acid by ACE. HHL (3.8 mM) was diluted in 0.1 M borate buffer (200 μL; pH 8.3), including 0.3 M NaCl, then 35 μL of sample solution (2 mg/mL) was added, and the mixture incubated for 10 min at 37 °C. The reaction was initiated by adding 20 μL of ACE solution (0.1 U/mL in borate buffer) and allowed to proceed for 30 min at 37 °C. HCl (250 μL of a 1 M solution) was then added to stop the reaction. […] Subsequently, 1 mL of supernatant (ethyl acetate) was collected in a new tube and placed in boiling water for 30 min to eliminate the solvent. The remaining hippuric acid residue was dissolved in 1 mL of distilled water, and absorbance was measured at 228 nm using distilled water as a blank. All samples were analyzed in triplicate. Captopril (0.008 mg/mL) was used as a positive control, and lyophilized aqueous extract (whey) obtained from plain yogurt was used as a negative control. The calculation of ACE inhibitory activity was determined as follows:(3) ACE inhibition%=[1-(A-C)/(B-D)]×100 where A is absorbance with the sample, HHL, and ACE; B is absorbance with HHL and ACE without sample; C is absorbance with sample and HHL; D is absorbance with HHL without sample and ACE.

[4] = system: Escherichia coli Nissle 1917 (EcN); assay: Prebiotic index of EcN (CFU on sample vs CFU on glucose); assay type: cell-based; conditions: 2 mg/mL, 24 h, ratio to growth on 2 mg/mL glucose
Protocol: as §1
Prebiotic index (PI) was estimated as previously described ([Dawood et al., 2021]). E. coli Nissle 1917 was used as the representative probiotic strain. Aliquots containing 10^7 CFU of an overnight culture of EcN were inoculated into separate tubes containing NB. Two mg/mL of extracts or isolated phenolic compounds or 2 mg/mL of glucose as a positive control was added, and growth of EcN was assessed as the number of viable colonies forming units (CFU)/mL after incubation for 24 h using the pour method on nutrient agar, followed by incubation at 37 °C for 24 h. PI is the ratio of growth of EcN in NB supplemented with individual compounds or extracts to growth on glucose. A PI greater than one indicates a positive influence on the growth of EcN. PI was calculated as follows:(1) PI=CFUofEcNinPhenolicCompounds(asprebiotic)/CFUofECNinglucose(ascontrolcarbohydrate)

[5] = target: pepsin (Homo sapiens, UniProt P0DJD8); assay: Protease (pepsin) inhibition with bovine serum albumin substrate; assay type: biochemical; conditions: samples at 2 mg/mL; Pepstatin A 0.5 µg/mL positive control; in words
Protocol: Protease used the protocol of [Hu et al. (2013]). Briefly, 100 µL of pepsin solution (1 mg pepsin/1 mL of 0.02 N HCl) was mixed with 0.5 mL of 10 mg/mL bovine serum albumin and 0.5 mL of extracts or pure compounds (2 mg/mL) and incubated for 30 min at 37 °C. TCA (0.9 mL 5%) was added to stop the reaction, followed by centrifugation (4800g, 15 min). Protein concentration in the final supernatant was determined using Coomassie (Bradford) protein assay kits. Pepstatin A (0. 5 µg/mL) was used as a positive control.

[6] = system: E. coli Nissle 1917 (EcN) versus Escherichia coli K12; assay: Prebiotic activity score (EcN growth relative to enteric E. coli K12, vs glucose); assay type: cell-based; conditions: EcN vs E. coli K12, 24 h at 37 °C
Protocol: as §1
Log E is log of CFU/mL of K12 at zero time (E0) and 24 h (E24) of culture on glucose and pure compounds. Individual pure compounds or extracts that induce a high value of Pscore improve EcN growth compared with the growth rate of EcN on glucose. Support of K12 growth by pure compounds or extracts theoretically should be low compared to growth of K12 on glucose.

[7] = EcN in nutrient broth supplemented at 2 mg/mL, 37 °C, n = 3

Sequence of angiotensin-converting enzyme (ACE) (P12821 30-1306, species assumed): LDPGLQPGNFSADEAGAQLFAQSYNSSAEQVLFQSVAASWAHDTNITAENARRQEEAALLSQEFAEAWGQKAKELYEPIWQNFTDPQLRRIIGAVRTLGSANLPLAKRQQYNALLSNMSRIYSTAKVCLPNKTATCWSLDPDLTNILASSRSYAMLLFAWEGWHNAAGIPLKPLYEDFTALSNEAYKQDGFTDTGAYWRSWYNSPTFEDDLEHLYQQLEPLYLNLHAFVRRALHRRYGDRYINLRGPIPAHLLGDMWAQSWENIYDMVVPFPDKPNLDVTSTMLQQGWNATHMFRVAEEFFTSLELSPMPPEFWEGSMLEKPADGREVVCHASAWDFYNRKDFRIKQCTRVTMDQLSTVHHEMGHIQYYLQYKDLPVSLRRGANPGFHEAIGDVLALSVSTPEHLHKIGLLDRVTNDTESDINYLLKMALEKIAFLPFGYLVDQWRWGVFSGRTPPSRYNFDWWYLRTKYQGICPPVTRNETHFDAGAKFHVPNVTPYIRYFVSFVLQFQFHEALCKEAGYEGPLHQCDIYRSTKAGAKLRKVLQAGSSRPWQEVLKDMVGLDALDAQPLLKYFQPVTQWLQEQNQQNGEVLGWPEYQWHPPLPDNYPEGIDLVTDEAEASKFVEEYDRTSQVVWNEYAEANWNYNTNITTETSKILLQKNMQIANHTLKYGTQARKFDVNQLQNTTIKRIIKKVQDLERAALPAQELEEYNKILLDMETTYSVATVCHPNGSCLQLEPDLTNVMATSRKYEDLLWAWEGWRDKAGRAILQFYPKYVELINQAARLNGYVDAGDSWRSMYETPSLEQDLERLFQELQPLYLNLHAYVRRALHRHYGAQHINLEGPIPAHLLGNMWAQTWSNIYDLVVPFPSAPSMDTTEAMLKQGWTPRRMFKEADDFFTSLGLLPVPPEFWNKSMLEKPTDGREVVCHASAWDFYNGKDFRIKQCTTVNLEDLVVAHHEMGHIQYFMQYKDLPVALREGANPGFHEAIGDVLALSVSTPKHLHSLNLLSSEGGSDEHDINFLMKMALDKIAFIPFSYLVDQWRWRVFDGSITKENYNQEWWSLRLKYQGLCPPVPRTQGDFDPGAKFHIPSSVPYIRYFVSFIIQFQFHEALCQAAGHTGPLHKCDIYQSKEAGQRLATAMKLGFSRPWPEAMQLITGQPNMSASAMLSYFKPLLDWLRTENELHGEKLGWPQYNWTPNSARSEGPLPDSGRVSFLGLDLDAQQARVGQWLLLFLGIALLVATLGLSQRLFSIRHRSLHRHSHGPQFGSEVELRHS
Sequence of pepsin (P0DJD8 63-388): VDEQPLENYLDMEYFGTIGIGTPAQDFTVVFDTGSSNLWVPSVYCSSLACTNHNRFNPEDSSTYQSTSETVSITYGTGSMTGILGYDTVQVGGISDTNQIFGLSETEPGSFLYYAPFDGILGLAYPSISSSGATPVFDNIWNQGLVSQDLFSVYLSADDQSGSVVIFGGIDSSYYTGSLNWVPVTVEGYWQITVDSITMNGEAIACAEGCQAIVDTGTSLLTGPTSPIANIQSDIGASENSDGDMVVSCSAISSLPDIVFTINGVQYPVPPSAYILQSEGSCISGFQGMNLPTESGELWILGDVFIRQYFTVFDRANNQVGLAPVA

CCO[C@@H]1O[C@H](CO)[C@@H](O)[C@H](O)[C@H]1O [Compound 8, ethyl β-D-glucopyranoside]
Effect on lag phase of EcN compared with control [1]: significantly (P < 0.05) decreased lag phase
Lag (min) [1, 7]: 180 ^b min

C[C@H]1O[C@H](O[C@H]2[C@H](O)[C@@H](O)[C@@H](O[C@H]3[C@H](O)[C@@H](O)C(O)O[C@@H]3CO)O[C@@H]2CO)[C@H](O)[C@@H](O)[C@@H]1N[C@H]1C=C(CO)[C@@H](O)[C@H](O)[C@H]1O (some centres unmarked) [acarbose, Acarbose]
Inhibition of α-amylase activity [2]: inhibition was greater than for either extracts

CC(=O)c1c(C)cc2cccc(O[C@@H]3O[C@H](CO)[C@@H](O)[C@H](O)[C@H]3O)c2c1O [Compound 7, 6-methyl-7-acetyl-1,8-dihydroxy naphthalene-1-O-β-D-glucoside]
Effect on lag phase of EcN compared with control [1]: significantly (P < 0.05) decreased lag phase
Lag (min) [1, 7]: 180 ^b min

COc1cc(O)c2c(c1)C(=O)c1cc(C)cc(O)c1C2=O [Compound 3, physcion]
Effect on lag phase of EcN compared with control [1]: significantly (P < 0.05) decreased lag phase
Lag (min) [1, 7]: 180 ^b min

CC(=O)c1c(C)cc2cccc(O)c2c1O [Compound 1, Nepodin]
ACE inhibitory activity [3]: the highest compared with other isolated compounds
Prebiotic index (PI) [4]: 0.94 ± 0.24
Lag (min) [1, 7]: 240 ^a min

Cc1cc(O)c2c(c1)C(=O)c1cc(O)cc(O)c1C2=O [Compound 5, emodin]
ACE inhibitory activity [3]: the lowest inhibitory activity of ACE compared with other compounds
Prebiotic index (PI) [4]: 1.14 ± 0.20
Lag (min) [1, 7]: 240 ^a min

Cc1cc(O)c2c(c1)C(=O)c1cccc(O)c1C2=O [Compound 2, chrysophanol]
Effect on lag phase of EcN compared with control [1]: significantly (P < 0.05) decreased lag phase
Lag (min) [1, 7]: 180 ^b min

CC[C@@H](CCC(C)C1CCC2C3CC=C4C[C@@H](O[C@@H]5O[C@H](CO)[C@@H](O)[C@H](O)[C@H]5O)CC[C@]4(C)C3CC[C@]12C)C(C)C (stereo partly drawn) [Compound 6, β-sitosterol 3-O-β-D-glucoside]
Effect on lag phase of EcN compared with control [1]: significantly (P < 0.05) decreased lag phase
Lag (min) [1, 7]: 180 ^b min

CC(C)CC(=O)N[C@H](C(=O)N[C@H](C(=O)N[C@@H](CC(C)C)[C@@H](O)CC(=O)N[C@@H](C)C(=O)N[C@@H](CC(C)C)[C@@H](O)CC(=O)O)C(C)C)C(C)C [Pepstatin, Pepstatin A] (Isovaleryl-VV[Sta]A[Sta]-OH)
Inhibition of pepsin (protease) activity [5]: inhibitory activity greater than for any extracts or isolated compounds

CC[C@H](CC[C@@H](C)[C@H]1CC[C@H]2[C@@H]3CC=C4C[C@@H](O)CC[C@]4(C)[C@H]3CC[C@]12C)C(C)C [Compound 4, β-sitosterol]
Prebiotic activity score (Pscore) [6]: about 3.02 ± 0.48
Prebiotic index (PI) [4]: 3.05 ± 0.47
Effect on lag phase of EcN compared with control [1]: significantly (P < 0.05) decreased lag phase
Lag (min) [1, 7]: 60 ^c min
Td (min), doubling time [1, 7]: 39.71 min
